Earlier results on one substance are cited in patent US4086220A, “Fragments of secretin” (G. D. Searle & Co., priority 1976, dated 1978).

For the data set the following is noted: on a molar basis; parent molecule = intact secretin.

Consider “Amino acid fragments of the molecule from position 1 to 14: Secretin fragment, positions 1 to 14 (containing the helical portion), reported in literature (Rayford et al.) (HSDGTFTSELSRLR; Secretin; UniProt P09683 28-41, looked up, fragment)”, for which the “lipolytic activity relative to that of the parent molecule” value is “about 0.5%”.
